In patent US20220054524A1, “NEW CONJUGATED NUCLEIC ACID MOLECULES AND THEIR USES” (ONXEO, priority 2018, published 2022):

Columns and labels:
Type in all cases: cell-based
[1] = tested on: Ta11, Ta12 and Ta13 resistant populations; experiment: XTT survival, talazoparib-resistant U937 populations; conditions: Homo sapiens, U-937, 96 h, 4 days
Protocol: (§1) Cell cultures were performed with the lymphoma cell line U937. Cells were grown in complete RPMI medium supplemented with 10% FBS and 1% Penicillin/Streptomycin and maintained at 37° C. in a humidified atmosphere at 5% CO2. This cell line was chosen according to its high sensitivity to both OX401 and talazoparib. To assess the acquired resistances irreversibility, U937 parental or resistant cells were seeded in 96 well-plates (2.10^4 cells/well) and treated with increasing concentrations of talazoparib for 4 days. Following drug exposure, cell survival was measured using the XTT assay (Sigma Aldrich). Briefly, the XTT solution was added directly to each well containing cell culture and the cells incubated for 5 hours at 37° C. before reading the absorbance at 490 nm and 690 nm using a microplate reader (BMG Fluostar, Galaxy). Cell survival was calculated as the ratio of living treated cells to living mock-treated cells. The IC50 (which represents the dose at which 50% of the cells are viable) was calculated by a non-linear regression model using GraphPad Prism software (version 5.04) by plotting the percentage viability against the Log of the drug concentration on each cell line.

U937 parental cells = experiment: XTT survival, U937 parental cells; conditions: Homo sapiens, U-937, 96 h, 4 days
Protocol: as §1

U937 cells = experiment: Selection of acquired resistance by repeated treatment cycles
Protocol: Cell cultures were performed with the lymphoma cell line U937. Cells were grown in complete RPMI medium supplemented with 10% FBS and 1% Penicillin/Streptomycin and maintained at 37° C. in a humidified atmosphere at 5% CO2. This cell line was chosen according to its high sensitivity to both OX401 and talazoparib. For repeated cycles of the treatment to select resistance, U937 cells were seeded at appropriate densities (2.10^5 cells/mL) and incubated 24 h at 37° C. before addition of the drug at doses corresponding to 10-20% survival compared to non-treated cells. Resistances were selected under 2 μM talazoparib or 1.5 μM OX401. Cells were harvested on day 4 after treatment, washed, and counted after staining with 0.4% trypan blue (Eve™ counting slides, NanoEnTek). After counting, cells were seeded in appropriate culture plates, and allowed to recover (drug free period) for 3 to 7 days. Another cycle of treatment/recovery was then started for up to 4 cycles.

[2] = tested on: homologous recombination repair pathway; experiment: Homologous recombination pathway activity (Rad51 foci); conditions: MDA-MB-231, olaparib 5 μM alone, 48 h
Protocol: (§2) Cell cultures were performed with the triple negative breast cancer cell line MDA-MB-231. Cells were grown in complete L15 Leibovitz medium and maintained at 37° C. in a humidified atmosphere at 0% Co2.
For immunostaining, cells are seeded on cover slips (Menzel, Braunschweig, Germany) at a concentration of 5×10^5 cells and incubated at 37° C. during 1 day. Cells are then treated with olaparib (5 μM)+/−OX401 (5 μM). 48 h after treatment, cells are fixed for 20 min in 4% paraformaldehyde/Phosphate-Buffered Saline (PBS 1×), permeabilized in 0.5% Triton X-100 for 10 min, blocked with 2% bovine serum albumin/PBS 1× and incubated with primary antibody for 1 h at 4° C. All secondary antibodies were used at a dilution of 1/200 for 45 min at Room Temperature (RT), and DNA was stained with 4′, 6-diamidino-2-phenylindole (DAPI). The following antibodies were used: primary monoclonal mouse anti-phospho-H2AX (Millipore, Guyancourt, France), anti-Rad51 rabbit antibody (Merk Millipore, Darmstadt, Allemagne), secondary goat anti-mouse IgG conjugated with Alexa-633 (Molecular Probes, Eugene, Oreg., USA) and secondary goat anti-rabbit IgG conjugated with Alexa-488 (Molecular Probes, Eugene, Oreg., USA).

MDA-MB-231 cells = experiment: Drug-induced DNA damage (γH2AX) by flow cytometry and immunofluorescence; conditions: MDA-MB-231, 5 μM, 48 h
Protocol: as §2
For immunostaining, cells are seeded on cover slips (Menzel, Braunschweig, Germany) at a concentration of 5×10^5 cells and incubated at 37° C. during 1 day. Cells are then treated with olaparib (5 μM)+/−OX401 (5 μM). 48 h after treatment, cells are fixed for 20 min in 4% paraformaldehyde/Phosphate-Buffered Saline (PBS 1×), permeabilized in 0.5% Triton X-100 for 10 min, blocked with 2% bovine serum albumin/PBS 1× and incubated with primary antibody for 1 h at 4° C. All secondary antibodies were used at a dilution of 1/200 for 45 min at Room Temperature (RT), and DNA was stained with 4′, 6-diamidino-2-phenylindole (DAPI). […]
Cells were treated with OX401 (5 μM) or Olaparib (5 μM) for 48 hours and then fixed and permeabilized with cold (−20° C.) 70% ethanol for at least 2 hours. […] Fluorescence intensities were determined with a Guava EasyCyte cytometer (Luminex). Data were analyzed using FlowJo software (Tree Star, Calif.).

| SMILES | IC50 [1] | IC50 (U937 parental cells) | Cell survival after the first cycle (U937 cells; U937, talazoparib 2 μM) | Cell growth during drug-free amplification periods (U937 cells; U937, talazoparib 2 μM or OX401 1.5 μM, cycles of treatment) | Cell survival after the forth cycle of treatment (U937 cells; U937, talazoparib 2 μM, 33 days after treatment start) | γH2AX and Rad51 foci [2] | γH2AX DSB biomarker (double-strand breaks accumulation) (MDA-MB-231 cells) |
| --- | --- | --- | --- | --- | --- | --- | --- |
| Cn1ncnc1[C@H]1c2n[nH]c(=O)c3cc(F)cc(c23)N[C@@H]1c1ccc(F)cc1 [talazoparib] | > 4000 nM | 2000 nM | 10% | recovered | more than 50% |  |  |
| O=C(c1cc(Cc2n[nH]c(=O)c3ccccc23)ccc1F)N1CCN(C(=O)C2CC2)CC1 [olaparib] |  |  |  |  |  | accumulation of γH2AX Foci that co-localize with Rad51 foci | high phosphorylation of histone H2AX |
